From a melting point compilation (Tetko et al.)

Structure (SMILES) | melting point
O=Cc1c[nH]nc1-c1ccccc1 | 146 to 148 °C
CCC1CN2CCc3c([nH]c4cccc(OC)c34)C2CC1C(=COC)C(=O)OC (stereo unspecified) | 104 °C
O=S1(=O)CCc2ccccc2CC1 | 153 to 155 °C
COc1ccc2c(c1)=NC1=C(C)NCCC=21 | 230 °C
Nc1ccccc1C(=O)OCC=Cc1ccccc1 | 61 °C
CCOC(=O)c1ccc(F)cc1F | 65 to 67 °C
S=c1ssc(S)c1-c1ccccc1 | 153 to 155 °C
COc1c(Cl)cccc1[N+](=O)[O-] | 58 °C
Cc1ccccc1N1CCNCC1 | 48 to 52 °C
Cc1ccc2c(c1)CCCN2 | 35 °C
C12C3C4C1C1C2C3C41 (stereo unspecified) | 126 °C
COc1cc(OC(F)(F)F)ccc1C#N | 35 °C
COc1ccc(CC(=O)O)cc1 | 87 °C
O=Cc1ccc(Sc2ccc(Cl)cc2)c([N+](=O)[O-])c1 | 120 °C
CC(=O)c1c(C)nc2cc3nc(C)c(C(C)=O)c(C)c3cc2c1C | 246 to 248 °C
ClC1CCCC1 | -50 °C
Brc1cccc(Br)c1Br | 87.5 °C
O=CCCc1ccccc1 | 47 °C
CCOC(CN1C(=O)c2ccccc2C1=O)OCC | 72 to 74 °C
Cc1nn(-c2ccccc2)c(C)c1C(=O)Cl | 58 to 59 °C
CSc1ncnc2c1cnn2-c1ccccc1 | 115 to 117 °C
O=P(O)(O)C(Cl)(Cl)P(=O)(O)O | 250 °C

Structure (SMILES) | melting point
Nc1[nH]ncc1-c1ccc(F)cc1 | 174 to 175 °C
O=[N+]([O-])c1ccc(C=Cc2cccc(CO)n2)o1 | 170 °C
CC(=O)c1ccc2c(c1)NC(=O)CO2 | 196 °C
CC(C)(C)c1ccc(C(N)=O)cc1 | 173 °C
CN1CCN(c2ccccc2C=O)CC1 | 44 to 48 °C
Nc1ncn[nH]1 | 159 °C
CC(=O)c1cccc(S(=O)(=O)Cl)c1 | 43 °C
N#C/C(=C/c1ccco1)c1nc(-c2ccc(Br)cc2)cs1 | 174 °C
CC(=O)CC(=O)Nc1ccccc1Cl | 105 °C
Cc1cccc(Nc2ccccc2)c1 | 30 °C
CCCCCCCCCCCCCCCCCCCCCC1CCCC1 | 42 °C
O=[N+]([O-])c1ccc(S(F)(F)(F)(F)F)cc1 | 38 °C
CC(C)(C)NC=O | 16 °C
OCc1ccc(-c2ncccn2)cc1 | 76.5 to 77.5 °C
COc1ccc(CO)cc1O | 136 °C
ClC(COCC(Cl)C(Cl)(Cl)Cl)C(Cl)(Cl)Cl (stereo unspecified) | -50 °C
COc1c(C(=O)Cl)csc1Cl | 66 to 68 °C
Cc1ccc(S(N)(=O)=O)cc1Cl | 137 °C
CCOC(=O)c1cnc2n(c1=O)CCS2 | 175 to 176 °C
NC(c1cccc2ccccc12)C(N)c1cccc2ccccc12 (stereo unspecified) | 174 to 177 °C
Brc1ccc2ncsc2c1 | 53 to 54 °C
Clc1ccc(C(Cl)Cl)c(Cl)c1Cl | 84 °C

Structure (SMILES) | melting point
O=C(O)c1ccnnc1 | 237 to 240 °C
COc1ccc(C=O)c(OC)c1OC | 40 °C
O=C(NC(=S)Nc1ccccc1)c1ccccc1 | 159 to 161 °C
O=Cc1cc([N+](=O)[O-])ccc1Cl | 79 °C
CC(C)(C)OC(=O)N[C@H](Cc1ccc(F)cc1)C(=O)O | 130 °C
Cn1c(=O)c2c(ncn2CC(O)CO)n(C)c1=O (stereo unspecified) | 162 °C
Brc1cc2ccc1CCc1ccc(c(Br)c1)CC2 | 251 °C
Cc1cc(C)nc(NS(=O)(=O)c2ccc(N)cc2)n1 | 200 °C
O=C(O)C1(C(=O)O)CC1 | 134 to 138 °C
Nc1c(Br)cc(Br)cc1C(=O)O | 235 to 236 °C
O=C(C=NO)Nc1ccccc1 | 175 °C
OCC1CCCCN1 (stereo unspecified) | 69 °C
Brc1cnc(N2CCNCC2)nc1 | 77 to 79 °C
CCCC(CCC)C(C(=O)O)C(=O)OCC (stereo unspecified) | 30 to 34 °C
N#Cc1cccc(C(=O)Cc2cccc(Oc3ccccc3)c2)c1 | 63.7 to 65.5 °C
O=C(CCl)Nc1cccc(Cl)c1Cl | 104 to 106 °C
Cc1nc2n(c(=O)c1CCN1CCC(c3noc4cc(F)ccc34)CC1)CCCC2 | 170 °C
O=S(=O)(Cl)c1ccc(-c2ccccc2)nc1 | 106 to 108 °C
O=C(O)CCC(=O)c1ccc2c(c1)OCCO2 | 138 to 140 °C
O=C(C1CCCCC1)N1CC(=O)N2CCc3ccccc3C2C1 (stereo unspecified) | 136 °C
Nc1ccc(Oc2ccc(Cl)cc2)cc1 | 102 °C
Nc1cccc(C(c2cccc(N)c2)(C(F)(F)F)C(F)(F)F)c1 | 86 °C

Structure (SMILES) | melting point
COc1ccc(C2NCCc3sccc32)cc1 (stereo unspecified) | 69 to 71 °C
COC(=O)c1ccccc1-n1c(SC)nc2ccccc2c1=O | 178 to 180 °C
Cc1c(C)n(C)c2ccccc12 | 18 °C
c1ccc(C(c2ccccc2)=P(c2ccccc2)(c2ccccc2)c2ccccc2)cc1 | 169 to 171 °C
CC(=O)Nc1ccc(/C(=C\c2ccccc2NC(C)=O)C(=O)O)cc1 | 240 °C
C/C=C/Cl | -99 °C
CC(=O)OCC(=O)C12N=C(C)OC1CC1C3CCC4=CC(=O)C=CC4(C)C3C(O)CC12C (stereo unspecified) | 256 °C
COc1ccccc1/C=C(\C(N)=O)c1nc2ccccc2s1 | 174 °C
O=C(O)Cc1ccccc1F | 63 °C
COc1ccc(C=CC(=O)c2cccc(C(=O)C=Cc3ccc(OC)cc3)c2)cc1 | 135 °C
O=C(O)c1cccc2c1CCCC2 | 147 to 150 °C
CNC(=O)Oc1ccc2c(c1)C1(C)CCN(C)OC1N2C (stereo unspecified) | 129 °C
NS(=O)(=O)c1ccc(F)c2nonc12 | 144 to 146 °C
O=C(Cc1ccccc1[N+](=O)[O-])c1ccccc1[N+](=O)[O-] | 166 °C
O=C(c1ccc(Cl)cc1)c1nn(-c2ccccc2)/c(=N\N=Cc2ccc(F)cc2)s1 | 150 °C
O=C(Cl)c1cccc(-c2ncccn2)c1 | 136 to 137 °C
C1C2CC3CC1CC(SSC14CC5CC(CC(C5)C1)C4)(C2)C3 | 225 to 228 °C
O=[N+]([O-])c1ccc2c3c(cccc13)-c1ccccc1-2 | 153 to 157 °C
O=S(=O)(O)CCN(CCO)CCO | 152 to 154 °C
CN(C)CCOc1ccccc1C(=O)O | 108 to 109 °C
O=C(CCCCl)c1ccc(Br)cc1 | 37 °C
Cc1c(C)c(C)c2c(c1C)CC1(OC2=O)C(=O)c2ccccc2C1=O | 257 °C

Structure (SMILES) | melting point
CC(=O)CCc1oc2c(I)cc(I)cc2c1-c1ccc(C)o1 | 192 °C
CC(=O)NC1Cc2ccccc21 (stereo unspecified) | 123 °C
Clc1ccc(Br)cn1 | 70 °C
Cc1noc(-c2ccccc2)c1C=O | 85 to 87 °C
Cc1ccc2c(c1)CCC(C)C2 (stereo unspecified) | 20 °C
CC(CC(N)C(=O)O)C(F)(F)F (racemic) | 273 to 275 °C
Cc1ccccc1OP(=O)(Oc1ccccc1C)Oc1ccccc1C | -25 °C
Cn1nc(C(=O)Cl)c2ccccc21 | 126 °C
FC(F)(F)c1n[nH]c(=S)[nH]1 | 161 to 164 °C
Cc1ccc(C=O)cc1[N+](=O)[O-] | 46 °C
Cn1nc(-c2cccs2)cc1CO | 95 to 96 °C
Cc1cc(C(=O)CC#N)c(C)o1 | 120 to 122 °C
CC(C)NC(=O)c1cc(F)c(Cl)nc1Cl | 159 to 161 °C
CCC(C)I (stereo unspecified) | -104 °C
c1cc(NNc2cccc(-n3cccn3)c2)cc(-n2cccn2)c1 | 169 to 171 °C
O=C=Nc1ccc(F)cc1[N+](=O)[O-] | 50 to 55 °C
Cc1ccc(C=Nc2n[nH]c(N=Cc3ccc(C)cc3)c2Cc2ccc(Cl)cc2)cc1 | 248 to 250 °C
CC(=O)N[C@@H](CCCCN)C(=O)O | 256 to 258 °C
CC12CCC(C1(C)C)C(CC(Br)Cc1ccccc1)(C1(CC(Br)Cc3ccccc3)C(=O)C3(C)CCC1C3(C)C)C2=O (stereo unspecified) | 215 °C
CC(C)CCC[C@@H](C)[C@H]1CC[C@H]2[C@@H]3CC[C@H]4CC(=O)CC[C@]4(C)[C@H]3CC[C@]12C | 128 to 133 °C
Cc1nccc(O)c1OCc1ccc(Cl)cc1 | 195 to 199 °C
CCCCCCCCC=CCCCCCCCC(=O)OCC | -32 °C

Structure (SMILES) | melting point
c1ccc2cc(P(c3ccc4ccccc4c3)c3ccc4ccccc4c3)ccc2c1 | 228 °C
OCC1OC(O)C(O)C(O)C1O (stereo unspecified) | 170 °C
COC[C@H]1CCCN1C(=S)SCC(=O)c1ccc(Br)cc1 | 89.5 °C
Cc1ccc(S(C)(=O)=O)cc1 | 88 °C
COc1ccc(C=CC(=O)O)c(Cl)c1OC | 217 to 218 °C
O=C(NNc1ccccc1)c1ccccc1 | 168 °C
CS(=O)(=O)c1ccc(O)cc1 | 93 °C
O=C(O)c1cc(Cl)ccc1Br | 154 °C
CC(=O)Nc1ccc(C(C)=O)cc1 | 169 °C
O=C(O)[C@H](O)[C@@H](O)[C@H](O)[C@H](O)CO | 131 °C
Clc1cc2c(cc1Cl)Oc1c(cc(Cl)c(Cl)c1Cl)O2 | 240 °C
CC1=NN(c2ccccc2)C(=O)C1 | 129 °C
O=Cc1coc2ccccc2c1=O | 151 to 155 °C
Cc1cc(C(=O)Nc2ccc(Cl)cc2)no1 | 155 to 157 °C
Cc1ccc(Br)c([N+](=O)[O-])c1 | 31 °C
CCn1c(=O)n(CC)c(=O)n(CC)c1=O | 96.8 °C
O=Cc1ccccc1OCc1ccccc1 | 47 °C
O=C(CBr)c1ccc2c(c1)OCCO2 | 115 to 116 °C
O=C(O)c1ccc(-c2ccncc2)cc1 | 300 °C
CC(C=CC=C(C)C=CC1=C(C)CC(O)CC1(C)C)=CC=CC=C(C)C=CC=C(C)C=CC1C(C)=CC(O)CC1(C)C (stereo unspecified) | 196 °C
Cc1nc(N)nc(Cl)c1Cc1ccccc1 | 195 to 196 °C
